Measured values: PMC12276006, “Structural basis for sensitivity and acquired resistance of fungal cap guanine-N7 methyltransferases to the antifungal antibiotic sinefungin” (Nucleic Acids Research, 2025)
Where “and” joins values, the source holds several entries; their conditions need not be identical. Identical values can stand only once. Like-named read-outs stand apart in the source and are kept apart here.

What was measured:
[1] = molecular target: T1, ScAbd1-Y416N-R422H (Saccharomyces cerevisiae, UniProt P32783, R422H/Y416N); experiment: Inhibition of GpppA methylation by ScAbd1-Y416N-R422H; type: biochemical; conditions: ScAbd1-Y416N-R422H 250 nM, 100 μM SAM, 250 μM GpppA, 30°C, 20 min; read-out: SAH IC50
T1 construct: aa 1–436); made in house; host or cells: Escherichia coli BL21 (DE3) CodonPlus RIL
T1 sequence (P32783 whole entry Y416N/R422H, the tested form may be a part): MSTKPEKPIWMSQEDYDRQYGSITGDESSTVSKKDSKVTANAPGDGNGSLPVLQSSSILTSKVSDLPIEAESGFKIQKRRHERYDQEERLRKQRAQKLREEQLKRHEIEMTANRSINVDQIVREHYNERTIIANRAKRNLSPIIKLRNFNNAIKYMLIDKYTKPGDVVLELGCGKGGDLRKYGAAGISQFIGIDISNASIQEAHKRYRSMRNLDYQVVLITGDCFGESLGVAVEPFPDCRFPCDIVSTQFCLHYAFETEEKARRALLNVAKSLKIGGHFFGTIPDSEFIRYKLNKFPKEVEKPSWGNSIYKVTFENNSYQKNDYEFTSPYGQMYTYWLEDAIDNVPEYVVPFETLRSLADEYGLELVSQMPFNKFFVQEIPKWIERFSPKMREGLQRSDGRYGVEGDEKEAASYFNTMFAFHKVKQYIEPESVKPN
Method: (§1) Reactions (50 μl) were performed in triplicate by incubating 250 nM cap methyltransferases with 100 μM SAM and 250 μM GpppA or 2 mM GTP at 30°C in a buffer consisting of 200 mM NaCl, 50 mM Tris–HCl (pH 8.2), and 5 mM βME. Samples (10 μl aliquots) were withdrawn at specified time points (KlAbd1s: 0, 2, 5, 10, and 15 min, Fig. 1A; ScAbd1s: 0, 5, 10, 15, and 20 min, Fig. 4A) and quenched with 10 μl of 100 mM H2SO4 and 50 μM L-tryptophan, and then stored at −80°C pending liquid chromatography-tandem mass spectrometry (LC–MS/MS) analyses.
(§2) The quenched samples were thawed and centrifuged at 4000 × g at 4°C for 30 min to pellet denatured protein and the supernatants were transferred to a 96-well plate for analysis. Methylation was measured via HPLC with detection by MS conducted on an Agilent 1200 HPLC system coupled with a 6490 QQQ (Agilent Technologies). […] Samples were analyzed by the QQQ using multiple reaction monitoring (MRM) in negative mode, which measures peak intensities of the product ions of m^7GpppA (785: 408, 620 m/z) or m^7GTP (536.0: 159.0, 371.0 m/z) and the internal standard, L-tryptophan (203: 116, 141.9 m/z). […] ISTDs obtained from reaction samples quenched at specified time points were then used to interpolate either m^7GpppA or m^7GTP concentrations using the calibration curves and used for quantification. […]

[2] = molecular target: T2, ScAbd1-L59P-Y416C (Saccharomyces cerevisiae, UniProt P32783, L59P/Y416C); experiment: Inhibition of GpppA methylation by ScAbd1-L59P-Y416C; type: biochemical; conditions: ScAbd1-L59P-Y416C 250 nM, 100 μM SAM, 250 μM GpppA, 30°C, 20 min
T2 construct: aa 1–436); made in house; host or cells: Escherichia coli BL21 (DE3) CodonPlus RIL
T2 sequence (P32783 whole entry L59P/Y416C, the tested form may be a part): as the sequence (P32783 whole entry Y416N/R422H, the tested form may be a part) above, with L59P, N416C, H422R counted along it
Method: as §1, §2

[3] = system: Ecm1; conditions: methylation of GTP by Ecm1 in the presence of 5 μM SAM; cited from earlier work
[4] = molecular target: T3, ScAbd1WT (Saccharomyces cerevisiae, UniProt P32783); experiment: Inhibition of GpppA methylation by wild-type ScAbd1 (LC-MS/MS assay); type: biochemical; conditions: for IC50: ScAbd1WT 250 nM, 100 μM SAM, 250 μM GpppA, 30°C, 20 min
T3 construct: aa 1–436); made in house; host or cells: Escherichia coli BL21 (DE3) CodonPlus RIL
T3 sequence (P32783 whole entry, the tested form may be a part): as the sequence (P32783 whole entry Y416N/R422H, the tested form may be a part) above, with N416Y, H422R counted along it
Method: as §1
(§3) The quenched samples were thawed and centrifuged at 4000 × g at 4°C for 30 min to pellet denatured protein and the supernatants were transferred to a 96-well plate for analysis. Methylation was measured via HPLC with detection by MS conducted on an Agilent 1200 HPLC system coupled with a 6490 QQQ (Agilent Technologies). Assay samples were separated on an InfinityLab Poroshell 120 HILIC-Z column (2.1 mm × 100 mm, 2.7 μm particle size; Agilent Technologies) equilibrated in NH4Ac buffer [A: 10% 10 mM NH4Ac, pH 9.0, and 500 μM methylene diphosphonic acid/90% acetonitrile (ACN); B: 90% 10 mM NH4Ac, pH 9.0, and 500 μM methylene diphosphonic acid/10% ACN] with a flow rate 400 μl/min. The eluents of the column were directed to an electrospray ion source, connected to the QQQ. Samples were analyzed by the QQQ using multiple reaction monitoring (MRM) in negative mode, which measures peak intensities of the product ions of m^7GpppA (785: 408, 620 m/z) or m^7GTP (536.0: 159.0, 371.0 m/z) and the internal standard, L-tryptophan (203: 116, 141.9 m/z). The resultant peak intensities were then integrated. L-Tryptophan was used as an internal standard to perform cross-sample analysis. The m^7GpppA or m^7GTP product ion integrated intensities were normalized to the integrated ion intensity of L-tryptophan, yielding the ISTD. […] ISTDs obtained from reaction samples quenched at specified time points were then used to interpolate either m^7GpppA or m^7GTP concentrations using the calibration curves and used for quantification. […]

[5] = system: recombinant S. cerevisiae Abd1; conditions: cited from earlier work
[6] = molecular target: T4, ScAbd1-E124K-K163R-K311R-F387Y-Y416F (Saccharomyces cerevisiae, UniProt P32783, E124K/F387Y/K163R/K311R/Y416F); experiment: Inhibition of GpppA methylation by ScAbd1-E124K-K163R-K311R-F387Y-Y416F; type: biochemical; conditions: ScAbd1-E124K-K163R-K311R-F387Y-Y416F 250 nM, 100 μM SAM, 250 μM GpppA, 30°C, 20 min
T4 construct: aa 1–436); made in house; host or cells: Escherichia coli BL21 (DE3) CodonPlus RIL
T4 sequence (P32783 whole entry E124K/K163R/K311R/F387Y/Y416F, the tested form may be a part): as the sequence (P32783 whole entry Y416N/R422H, the tested form may be a part) above, with E124K, K163R, K311R, F387Y, N416F, H422R counted along it
Method: as §1, §2

[7] = molecular target: T5, KlAbd1 (K. lactis cap methyltransferase Abd1, wild-type) (Kluyveromyces lactis, UniProt Q6CKI0); experiment: Inhibition of GpppA methylation by KlAbd1 (LC-MS/MS assay); type: biochemical; conditions: for IC50: wild-type KlAbd1 250 nM, 100 μM SAM, 250 μM GpppA, 30°C, 10 min
T5 construct: aa 1–426); His10-Smt3 (N, cleaved yes); made in house; host or cells: Escherichia coli BL21 (DE3) CodonPlus RIL
T5 sequence (Q6CKI0 whole entry, the tested form may be a part): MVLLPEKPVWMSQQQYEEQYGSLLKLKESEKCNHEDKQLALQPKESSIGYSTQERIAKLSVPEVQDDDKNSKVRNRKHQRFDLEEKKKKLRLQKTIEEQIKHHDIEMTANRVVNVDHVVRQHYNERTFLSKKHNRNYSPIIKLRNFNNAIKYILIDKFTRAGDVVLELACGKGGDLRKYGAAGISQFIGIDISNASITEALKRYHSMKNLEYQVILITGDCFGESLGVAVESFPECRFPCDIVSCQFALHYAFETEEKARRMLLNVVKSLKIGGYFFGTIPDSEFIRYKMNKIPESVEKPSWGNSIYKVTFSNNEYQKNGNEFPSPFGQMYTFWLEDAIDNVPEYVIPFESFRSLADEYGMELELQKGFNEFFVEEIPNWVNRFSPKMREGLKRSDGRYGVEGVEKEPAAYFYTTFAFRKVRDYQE
Method: as §1, §3

[8] = molecular target: T6, ScAbd1-Y416A (Saccharomyces cerevisiae, UniProt P32783, Y416A); experiment: Inhibition of GpppA methylation by ScAbd1-Y416A; type: biochemical; conditions: ScAbd1-Y416A 250 nM, 100 μM SAM, 250 μM GpppA, 30°C, 20 min
T6 construct: aa 1–436); made in house; host or cells: Escherichia coli BL21 (DE3) CodonPlus RIL
T6 sequence (P32783 whole entry Y416A, the tested form may be a part): as the sequence (P32783 whole entry Y416N/R422H, the tested form may be a part) above, with N416A, H422R counted along it
Method: as §1, §2

[9] = system: ScAbd1 variants L59P-Y416C, Y416N-R422H, E124K-K163R-K311R-F387Y-Y416F and Y416A; experiment: Inhibition of GpppA methylation, the four SFG-resistant ScAbd1 variants stated together; type: biochemical, Saccharomyces cerevisiae; conditions: versus wild-type ScAbd1
Method: as §1, §2

[10] = system: S. cerevisiae strain complemented with the mammalian capping apparatus; set-up: method as in PMID 10347220; conditions: cited from earlier work
[11] = system: S. cerevisiae and an S. cerevisiae strain complemented with Candida albicans capping enzymes; set-up: method as in PMID 15964937, PMID 11035009; conditions: S. cerevisiae versus strain complemented with Candida albicans capping enzymes; cited from earlier work
[12] = molecular target: human cap guanine-N7 methyltransferase RNMT; conditions: cited from earlier work
[13] = system: S. cerevisiae abd1Δ pABD1* pSAM3 strains; experiment: Spot test for growth of abd1Δ pSAM3 strains bearing ABD1 alleles on SFG-supplemented agar; type: cell-based, Saccharomyces cerevisiae; conditions: 30°C
Method: A library of PCR-mutated ABD1 alleles (ABD1*) in a CEN TRP1 plasmid under the control of the ABD1 promoter was constructed as described. The pABD1* library DNA was transfected into S. cerevisiae strain abd1Δ pABD1 (CEN URA3 ABD1) pSAM3 (2µ HIS3 SAM3). Trp^+ His^+ transformants were selected and then plated to agar medium containing 5-fluoroorotic acid (FOA) to counter-select against the CEN URA3 ABD1 plasmid. FOA survivors were plated to Trp- His- agar plates (25 ml) to which 300 µl of a 2.5 or 5 µM solution of SFG had been applied. Colonies that grew well on SFG-containing plates were candidates for harboring SFG-resistant ABD1* alleles. To ascertain whether SFG-resistance was linked to ABD1, the plasmids were recovered from individual SFG-resistant strains and amplified clonally by transformation in E. coli. The pABD1* plasmid DNAs isolated from E. coli were transfected into S. cerevisiae abd1Δ pABD1 (CEN URA3 ABD1) pSAM3 (2µ HIS3 SAM3) strain. Trp^+ His^+ transformants were selected and plated to FOA for counterselection against the CEN URA3 ABD1 plasmid. The resulting abd1Δ pABD1* (CEN TRP1 ABD1*) pSAM3 (2µ HIS3 SAM3) strains were tested in parallel with a control abd1Δ pABD1 (CEN TRP1 ABD1) pSAM3 (2µ HIS3 SAM3) strain for growth on Trp- His- agar plates (25 ml) supplemented with SFG (300 µl of 0.63, 1.25, 2.5 and 5 µM SFG per plate). […]

Nc1ncnc2c1ncn2[C@@H]1O[C@H](CSCC[C@H](N)C(=O)O)[C@@H](O)[C@H]1O [SAH, S-adenosylhomocysteine]
IC50 [1]: 29700 ± 4700 nM | IC50 ([2]; read-out: SAH IC50): 33500 ± 2300 nM | IC50 [3]: 4000 nM | IC50 ([4]; read-out: SAH IC50): 31600 ± 6800 nM | IC50 ([5]; methylation of GpppA by recombinant S. cerevisiae Abd1, read-out: IC50 of SAH): 21000 nM | IC50 ([6]; read-out: SAH IC50): 35600 ± 2600 nM | IC50 ([7]; read-out: IC50 of SAH): 12300 ± 4100 nM | IC50 ([8]; read-out: SAH IC50): 16400 ± 2600 nM

Nc1ncnc2c1ncn2[C@@H]1O[C@H](C[C@@H](N)CC[C@H](N)C(=O)O)[C@@H](O)[C@H]1O [SFG, sinefungin]
IC50 ([2]; read-out: SFG IC50): 1350 ± 69.9 nM | IC50 [3]: 1500 nM | IC50 ([4]; read-out: SFG IC50): 65 nM and 65.1 nM | sensitivity/affinity for SFG versus SAH (ratio of IC50 values) ([4]; wild-type ScAbd1, GpppA substrate): 485 fold | IC50 ([5]; S. cerevisiae Abd1 in vitro, GpppA, read-out: apparent IC50 of SFG): 24 nM | tighter binding of SFG than of SAM or SAH ([5]; ScAbd1): up to 900 fold | potency of SFG versus SAH ([5]; methylation of GpppA by recombinant S. cerevisiae Abd1): 900 fold | IC50 ([6]; read-out: SFG IC50): 1470 ± 67.7 nM | potency of SFG versus SAH (ratio of the IC50 values) ([7]; KlAbd1, GpppA substrate): 240 fold | IC50 ([7]; read-out: apparent IC50 of SFG): 52.1 ± 13.1 nM | IC50 ([8]; read-out: SFG IC50): 1470 ± 77 nM | increase of the IC50 for SFG in the SFG-resistant mutants [9]: 20 fold | potency of growth inhibition relative to S. cerevisiae with fungal capping system [10]: five-fold less potent | potency of growth inhibition, comparison of the two strains [11]: equal potency | IC50 of SFG lower than that of SAH [12]: 130 fold | SFG resistance of growth ([13]; single ABD1-Y416A mutation, abd1Δ pSAM3 (2μ HIS3 SAM3) strain background, agar): sufficed to confer SFG resistance | sensitivity to growth inhibition by SFG ([13]; three ABD1* strains (L59P-Y416C, Y416N-R422H, E124K-K163R-K311R-F387Y-Y416F) versus isogenic wild-type ABD1, Trp- His- agar): less sensitive to growth inhibition by SFG than the isogenic wild-type ABD1 strain
